Results: US11779572B1, “Methods of treating gastrointestinal stromal tumors” (Deciphera Pharmaceuticals, LLC, priority 2022, dated 2023)

System: GIST patients
Assay: Example 2 study: treatment-emergent adverse events
Type: in vivo, human
Method: Grade 3 or 4 treatment-emergent adverse events (TEAEs) in >5% of patients were lipase increased (18%; n=33), anemia (11%; n=20), hypertension (7%; n=13) and abdominal pain (6%; n=11). 13% of patients (n=24) experienced TEAEs leading to study treatment discontinuation, 17% of patients (n=31) experienced TEAEs leading to dose reduction and 49% of patients (n=88) had TEAEs leading to study drug interruption. Table 3 lists TEAEs >10% for GIST patients treated with ≥100 mg of ripretinib daily.

[1] = ≥100 mg daily, col c2 (no head; Grade 3 or 4)
[2] = ≥100 mg daily, col c3 (no head; c1+c2)

## CCn1c(=O)c(-c2cc(NC(=O)Nc3ccccc3)c(F)cc2Br)cc2cnc(NC)cc21 [ripretinib]
GIST patients ≥100 mg daily
  tolerability: generally well tolerated
≥100 mg daily
  Grade 3 or 4 TEAE abdominal pain: 6%
  Grade 3 or 4 TEAE anemia: 11%
  Grade 3 or 4 TEAE hypertension: 7%
  Grade 3 or 4 TEAE lipase increased: 18%
  patients with TEAEs leading to dose reduction: 17%
  patients with TEAEs leading to study drug interruption: 49%
  patients with TEAEs leading to study treatment discontinuation: 13%
≥100 mg daily, col c1
  TEAE: Abdominal pain: 33 (18%)
  TEAE: Actinic keratosis: 25 (14%)
  TEAE: Alopecia: 102 (57%)
  TEAE: Amylase increased: 19 (11%)
  TEAE: Anemia: 18 (10%)
  TEAE: Arthralgia: 40 (22%)
  TEAE: Back Pain: 30 (17%)
  TEAE: Blood bilirubin increase: 16 (9%)
  TEAE: Blood creatine phosphokinase increased: 13 (7%)
  TEAE: Constipation: 67 (37%)
  TEAE: Cough: 37 (21%)
  TEAE: Decreased appetite: 60 (34%)
  TEAE: Diarrhea: 50 (28%)
  TEAE: Dizziness: 29 (16%)
  TEAE: Dry skin: 37 (21%)
  TEAE: Dysgeusia: 20 (11%)
  TEAE: Dyspnea: 32 (18%)
  TEAE: Fatigue: 94 (53%)
  TEAE: Headache: 33 (18%)
  TEAE: Hypertension: 25 (14%)
  TEAE: Hypokalaemia: 21 (12%)
  TEAE: Hypomagnesaemia: 18 (10%)
  TEAE: Hypophosphataemia: 17 (10%)
  TEAE: Insomnia: 21 (12%)
  TEAE: Lipase increased: 18 (10%)
  TEAE: Muscle spasms: 47 (26%)
  TEAE: Myalgia: 79 (44%)
  TEAE: Nausea: 77 (43%)
  TEAE: Pain in extremity: 18 (10%)
  TEAE: Palmar-plantar erythrodysaesthesia syndrome: 71 (40%)
  TEAE: Pruritus: 18 (10%)
  TEAE: Rash: 27 (15%)
  TEAE: Rash maculo-papular: 18 (10%)
  TEAE: Seborrhoeic keratosis: 21 (12%)
  TEAE: Skin papilloma: 17 (10%)
  TEAE: Upper respiratory tract infection: 18 (10%)
  TEAE: Urinary tract infection: 16 (9%)
  TEAE: Vision blurred: 17 (10%)
  TEAE: Vomiting: 42 (24%)
  TEAE: Weight decreased: 51 (29%)
[1]
  TEAE: Abdominal pain: 11 (6%)
  TEAE: Actinic keratosis: 0 (0%)
  TEAE: Alopecia: 0 (0%)
  TEAE: Amylase increased: 2 (1%)
  TEAE: Anemia: 20 (11%)
  TEAE: Arthralgia: 0 (0%)
  TEAE: Back Pain: 2 (1%)
  TEAE: Blood bilirubin increase: 5 (3%)
  TEAE: Blood creatine phosphokinase increased: 5 (3%)
  TEAE: Constipation: 0 (0%)
  TEAE: Cough: 0 (0%)
  TEAE: Decreased appetite: 2 (1%)
  TEAE: Diarrhea: 3 (2%)
  TEAE: Dizziness: 0 (0%)
  TEAE: Dry skin: 0 (0%)
  TEAE: Dysgeusia: 0 (0%)
  TEAE: Dyspnea: 4 (2%)
  TEAE: Fatigue: 4 (2%)
  TEAE: Headache: 1 (1%)
  TEAE: Hypertension: 13 (7%)
  TEAE: Hypokalaemia: 5 (3%)
  TEAE: Hypomagnesaemia: 0 (0%)
  TEAE: Hypophosphataemia: 8 (5%)
  TEAE: Insomnia: 0 (0%)
  TEAE: Lipase increased: 33 (18%)
  TEAE: Muscle spasms: 0 (0%)
  TEAE: Myalgia: 0 (0%)
  TEAE: Nausea: 1 (1%)
  TEAE: Pain in extremity: 1 (1%)
  TEAE: Palmar-plantar erythrodysaesthesia syndrome: 1 (1%)
  TEAE: Pruritus: 0 (0%)
  TEAE: Rash: 0 (0%)
  TEAE: Rash maculo-papular: 0 (0%)
  TEAE: Seborrhoeic keratosis: 0 (0%)
  TEAE: Skin papilloma: 0 (0%)
  TEAE: Upper respiratory tract infection: 0 (0%)
  TEAE: Urinary tract infection: 4 (2%)
  TEAE: Vision blurred: 0 (0%)
  TEAE: Vomiting: 2 (1%)
  TEAE: Weight decreased: 1 (1%)
[2]
  TEAE: Abdominal pain: 44 (25%)
  TEAE: Actinic keratosis: 25 (14%)
  TEAE: Alopecia: 102 (57%)
  TEAE: Amylase increased: 21 (12%)
  TEAE: Anemia: 38 (21%)
  TEAE: Arthralgia: 40 (22%)
  TEAE: Back Pain: 32 (18%)
  TEAE: Blood bilirubin increase: 21 (12%)
  TEAE: Blood creatine phosphokinase increased: 18 (10%)
  TEAE: Constipation: 67 (37%)
  TEAE: Cough: 37 (21%)
  TEAE: Decreased appetite: 62 (35%)
  TEAE: Diarrhea: 53 (30%)
  TEAE: Dizziness: 29 (16%)
  TEAE: Dry skin: 37 (21%)
  TEAE: Dysgeusia: 20 (11%)
  TEAE: Dyspnea: 36 (20%)
  TEAE: Fatigue: 98 (55%)
  TEAE: Headache: 34 (19%)
  TEAE: Hypertension: 38 (21%)
  TEAE: Hypokalaemia: 26 (15%)
  TEAE: Hypomagnesaemia: 18 (10%)
  TEAE: Hypophosphataemia: 25 (14%)
  TEAE: Insomnia: 21 (12%)
  TEAE: Lipase increased: 51 (29%)
  TEAE: Muscle spasms: 47 (26%)
  TEAE: Myalgia: 79 (44%)
  TEAE: Nausea: 78 (44%)
  TEAE: Pain in extremity: 19 (11%)
  TEAE: Palmar-plantar erythrodysaesthesia syndrome: 72 (40%)
  TEAE: Pruritus: 18 (10%)
  TEAE: Rash: 27 (15%)
  TEAE: Rash maculo-papular: 18 (10%)
  TEAE: Seborrhoeic keratosis: 21 (12%)
  TEAE: Skin papilloma: 17 (10%)
  TEAE: Upper respiratory tract infection: 18 (10%)
  TEAE: Urinary tract infection: 20 (11%)
  TEAE: Vision blurred: 17 (10%)
  TEAE: Vomiting: 44 (25%)
  TEAE: Weight decreased: 52 (29%)
